Assay results: patent US4338305A, “Use of LRH and LRH agonists” (American Home Products Corporation, priority 1975, dated 1982)
Counter-ions that a name gives are not always drawn. Like-named read-outs stand apart in the source and are kept apart here. Non-standard residues stand in square brackets, D forms with d. Residues, ends and D or L forms follow the SMILES beside them. pGlu = O=C1CC[C@@H](C(=O)O)N1

Legend:
[1] = system: Female, Sprague-Dawley rats
Text: Female, Sprague-Dawley rats, 350±30 g., are caged daily (P.M.) with adult, sexually experienced Sprague-Dawley males. Vaginal smears are taken each A.M. after cohabitation. The presence of vaginal sperm is used as the index of mating and the initiation of pregnancy. Day 1 of pregnancy is taken as the day sperm is found in the vaginal smear. Mated females are then grouped separately. Treatment is begun at any time over the first 12 days of pregnancy at a divided dose (9 A.M. and 3 P.M.) or a single treatment. Claudogenic activity is defined for compounds administered over the first 7 days inclusive of pregnancy (Pre-implantation). Interceptive activity is defined for compounds administered days 7-12 inclusive of pregnancy (Post-implantation). Rats are sacrificed on day 14 (claudogen), day 18 (interceptive) or allowed to come to term prior to the option of sacrifice (claudogen or interceptive.) Rats containing at least one "Normal" fetus are considered pregnant.
For the purpose of defining the post-coital stages of pregnancy in the rat as an experimental model, the following schedule is provided in definition of post-coital contraceptive activity which, for the purpose of this disclosure, is intended to embrace both pre-(claudogenic) and post-(interceptive) implantation contraceptive activity: day 1--vaginal sperm; days 1-3--ova transport in oviducts, and fertilization; days 3-5 blastocyst free in uterine lumen; days 5-7--implantation into uterine wall; days>7--post implantation.

Proestrous female rats = test: Ovulation Induction in the Rat; assay type: in vivo; settings: as a result of induced LH production
Procedure: (b) Ovulation Induction in the Rat
Proestrous female rats were injected intraperitoneally with a hypnotic dose of Nembutal about (~60 mg/kg) at 1:30 P.M. This treatment blocks the spontaneous ovulatory surge of pituitary LH which generally occurs between 2:00 and 4:00 P.M. Between 1:40 and 1:50 P.M. the recipients then received the test material via the jugular vein. The following morning the animals are sacrificed and the fallopian tubes examined for ova under a dissecting microscope.

[2] = literature report; cited from earlier work
[3] = PO, total daily dose 500 μg/rat, Rx days 7-12 post coitus
[4] = SC, total daily dose 5.0 μg/rat, Rx days 7-12 post coitus
[5] = SC, total daily dose 100 μg/rat, Rx days 1-7 post coitus
[6] = PO, total daily dose 500 μg/rat, Rx days 1-7 post coitus
[7] = PO, total daily dose 1000 μg/rat, Rx days 1-7 post coitus
[8] = PO, total daily dose 1000 μg/rat, Rx days 7-12 post coitus
[9] = SC, total daily dose 100 μg/rat, Rx days 1-3 post coitus
[10] = SC, total daily dose 300 μg/rat, Rx days 1-3 post coitus
[11] = SC, total daily dose 5000 μg/rat, Rx day 3 post coitus
[12] = SC, total daily dose 200 μg/rat, Rx days 1-3 post coitus

## CCNC(=O)[C@@H]1CCCN1C(=O)[C@H](CCCNC(=N)N)NC(=O)[C@H](CC(C)C)NC(=O)[C@@H](CC)NC(=O)[C@H](Cc1ccc(O)cc1)NC(=O)[C@H](CO)NC(=O)[C@H](Cc1c[nH]c2ccccc12)NC(=O)[C@H](Cc1c[nH]cn1)NC(=O)[C@@H]1CCC(=O)N1
[1]; [3]
  % inhibition of Pregnancy: 20%
[1]; SC, total daily dose 5.0 μg/rat, Rx days 1-7 post coitus
  % inhibition of Pregnancy: 40%
[1]; [4]
  % inhibition of Pregnancy: 80%
[1]; [5]
  % inhibition of Pregnancy: 100%

## CCNC(=O)[C@@H]1CCCN1C(=O)[C@H](CCCNC(=N)N)NC(=O)[C@H](CC(C)C)NC(=O)[C@@H](CS)NC(=O)[C@H](Cc1ccc(O)cc1)NC(=O)[C@H](CO)NC(=O)[C@H](Cc1c[nH]c2ccccc12)NC(=O)[C@H](Cc1c[nH]cn1)NC(=O)[C@@H]1CCC(=O)N1 [[D-Cys^6, des-Gly-NH2^10]LRH ethylamide]
Proestrous female rats
  activity relative to LRH as ovulation inducing agents: > 40 times

## CC(C)C[C@H](NC(=O)CNC(=O)[C@H](Cc1ccc(O)cc1)NC(=O)[C@H](CO)NC(=O)[C@H](Cc1c[nH]c2ccccc12)NC(=O)[C@H](Cc1cnc[nH]1)NC(=O)[C@@H]1CCC(=O)N1)C(=O)N[C@@H](CCCNC(=N)N)C(=O)N1CCC[C@H]1C(=O)NCC(N)=O [LRH, L-(5-oxo-prolyl)-L-histidyl-L-tryptophyl-L-seryl-L-tyrosyl-glycyl-L-leucyl-L-arginyl-L-prolyl-glycinamide, reference compound]
[1]; [6]
  % inhibition of Pregnancy: 20%
[1]; [3]
  % inhibition of Pregnancy: 0%
[1]; [7]
  % inhibition of Pregnancy: 60%
[1]; [8]
  % inhibition of Pregnancy: 100%
[1]; SC, total daily dose 50 μg/rat, Rx days 1-7 post coitus
  % inhibition of Pregnancy: 0%
[1]; [9]
  % inhibition of Pregnancy: 0%
[1]; [5]
  % inhibition of Pregnancy: 100%
[1]; SC, total daily dose 200 μg/rat, Rx days 7-12 post coitus
  % inhibition of Pregnancy: 50%
[1]; [10]
  % inhibition of Pregnancy: 20%
[1]; SC, total daily dose 500 μg/rat, Rx days 1-3 post coitus
  % inhibition of Pregnancy: 40%
[1]; SC, total daily dose 1000 μg/rat, Rx days 1-3 post coitus
  % inhibition of Pregnancy: 40%
[1]; SC, total daily dose 1000 μg/rat, Rx days 1-7 post coitus
  % inhibition of Pregnancy: 100%
[1]; [11]
  % inhibition of Pregnancy: 100%
[1]; rat, administered post-coitally
  post-coital anti-pregnancy (claudogenic/interceptive) effect: effective in inhibiting pregnancy
[1]; rat, in vivo
  teratogenicity: some signs of teratogenicity

## CCNC(=O)[C@@H]1CCCN1C(=O)[C@H](CCCNC(=N)N)NC(=O)[C@H](CC(C)C)NC(=O)[C@@H](CC(=O)O)NC(=O)[C@H](Cc1ccc(O)cc1)NC(=O)[C@H](CO)NC(=O)[C@H](Cc1c[nH]c2ccccc12)NC(=O)[C@H](Cc1c[nH]cn1)NC(=O)[C@@H]1CCC(=O)N1 [[D-Asp^6, des-Gly-NH2^10]LRH ethylamide]
Proestrous female rats
  activity relative to LRH as ovulation inducing agents: > 40 times

## CCNC(=O)[C@@H]1CCCN1C(=O)[C@H](CCCNC(=N)N)NC(=O)[C@H](CC(C)C)NC(=O)[C@@H](CC(C)C)NC(=O)[C@H](Cc1ccc(O)cc1)NC(=O)[C@H](CO)NC(=O)[C@H](Cc1c[nH]c2ccccc12)NC(=O)[C@H](Cc1c[nH]cn1)NC(=O)[C@@H]1CCC(=O)N1
[1]; [12]
  % inhibition of Pregnancy: 20%
[1]; SC, total daily dose 200 μg/rat, Rx days 1-7 post coitus
  % inhibition of Pregnancy: 100%

## CCNC(=O)[C@@H]1CCCN1C(=O)[C@H](CCCNC(=N)N)NC(=O)[C@H](CC(C)C)NC(=O)[C@@H](CCC(=O)O)NC(=O)[C@H](Cc1ccc(O)cc1)NC(=O)[C@H](CO)NC(=O)[C@H](Cc1c[nH]c2ccccc12)NC(=O)[C@H](Cc1c[nH]cn1)NC(=O)[C@@H]1CCC(=O)N1 [[D-Glu^6, des-Gly-NH2^10]LRH ethylamide]
Proestrous female rats
  activity relative to LRH as ovulation inducing agents: > 40 times

## CCNC(=O)[C@@H]1CCCN1C(=O)[C@H](CCCNC(=N)N)NC(=O)[C@H](CO)NC(=O)[C@@H](CC(C)C)NC(=O)[C@H](Cc1ccc(O)cc1)NC(=O)[C@H](CO)NC(=O)[C@H](Cc1c[nH]c2ccccc12)NC(=O)[C@H](Cc1c[nH]cn1)NC(=O)[C@@H]1CCC(=O)N1 ([pGlu]HWSY[dL]SRP-NHEt)
Proestrous female rats
  activity relative to LRH as ovulation inducing agents: > 40 times

## CCNC(=O)[C@@H]1CCCN1C(=O)[C@H](CCCNC(=N)N)NC(=O)[C@H](CS)NC(=O)[C@@H](C)NC(=O)[C@H](Cc1ccc(O)cc1)NC(=O)[C@H](CO)NC(=O)[C@H](Cc1c[nH]c2ccccc12)NC(=O)[C@H](Cc1c[nH]cn1)NC(=O)[C@@H]1CCC(=O)N1 ([pGlu]HWSY[dA]CRP-NHEt)
Proestrous female rats
  activity relative to LRH as ovulation inducing agents: > 40 times

## CCNC(=O)[C@@H]1CCCN1C(=O)[C@H](CCCNC(=N)N)NC(=O)[C@H](CO)NC(=O)[C@@H](CO)NC(=O)[C@H](Cc1ccc(O)cc1)NC(=O)[C@H](CO)NC(=O)[C@H](Cc1c[nH]c2ccccc12)NC(=O)[C@H](Cc1c[nH]cn1)NC(=O)[C@@H]1CCC(=O)N1 ([pGlu]HWSY[dS]SRP-NHEt)
Proestrous female rats
  activity relative to LRH as ovulation inducing agents: > 40 times

## CCNC(=O)[C@@H]1CCCN1C(=O)[C@H](CCCNC(=N)N)NC(=O)[C@H](CC(C)C)NC(=O)[C@@H](CCCCN)NC(=O)[C@H](Cc1ccc(O)cc1)NC(=O)[C@H](CO)NC(=O)[C@H](Cc1c[nH]c2ccccc12)NC(=O)[C@H](Cc1c[nH]cn1)NC(=O)[C@@H]1CCC(=O)N1 [[D-Lys^6, des-Gly-NH2^10]LRH ethylamide]
Proestrous female rats
  activity relative to LRH as ovulation inducing agents: > 40 times

## CCNC(=O)[C@@H]1CCCN1C(=O)[C@H](CCCNC(=N)N)NC(=O)[C@H](CS)NC(=O)[C@@H](CC(C)C)NC(=O)[C@H](Cc1ccc(O)cc1)NC(=O)[C@H](CO)NC(=O)[C@H](Cc1c[nH]c2ccccc12)NC(=O)[C@H](Cc1c[nH]cn1)NC(=O)[C@@H]1CCC(=O)N1 ([pGlu]HWSY[dL]CRP-NHEt)
Proestrous female rats
  activity relative to LRH as ovulation inducing agents: > 40 times

## CC(C)C[C@H](NC(=O)C(C)(C)NC(=O)[C@H](Cc1ccc(O)cc1)NC(=O)[C@H](CO)NC(=O)[C@H](Cc1c[nH]c2ccccc12)NC(=O)[C@H](Cc1c[nH]cn1)NC(=O)[C@@H]1CCC(=O)N1)C(=O)N[C@@H](CCCNC(=N)N)C(=O)N1CCC[C@H]1C(=O)NCC(N)=O [[2-methyl-Ala^6]LRH, L-(5-oxoprolyl)-L-histidyl-L-tryptophyl-L-seryl-L-tyrosyl-2-methylalanyl-L-leucyl-L-arginyl-L-prolylglycinamide acetate salt]
[1]; [5]
  % inhibition of Pregnancy: 75%
[1]; SC, total daily dose 500 μg/rat, Rx days 1-7 post coitus
  % inhibition of Pregnancy: 100%

## CC(C)C[C@H](NC(=O)[C@@H](CCCCN)NC(=O)[C@H](Cc1ccc(O)cc1)NC(=O)[C@H](CO)NC(=O)[C@H](Cc1c[nH]c2ccccc12)NC(=O)[C@H](Cc1c[nH]cn1)NC(=O)[C@@H]1CCC(=O)N1)C(=O)N[C@@H](CCCNC(=N)N)C(=O)N1CCC[C@H]1C(=O)NCC(N)=O [[D-Lys^6]LRH, L-Pyroglutamyl-L-histidyl-L-tryptophyl-L-seryl-L-tyrosyl-D-lysyl-L-leucyl-L-arginyl-L-prolyl-glycinamide]
[1]; [6]
  % inhibition of Pregnancy: 40%
[1]; SC, total daily dose 5.0 μg/rat, Rx days 1-12 post coitus
  % inhibition of Pregnancy: 20%
[1]; [9]
  % inhibition of Pregnancy: 0%
[1]; [10]
  % inhibition of Pregnancy: 60%
[1]; SC, total daily dose 300 μg/rat, Rx days 1-7 post coitus
  % inhibition of Pregnancy: 100%

## CC(C)C[C@H](NC(=O)[C@@H](C)NC(=O)[C@H](Cc1ccc(O)cc1)NC(=O)[C@H](CO)NC(=O)[C@H](Cc1c[nH]c2ccccc12)NC(=O)[C@H](Cc1c[nH]cn1)NC(=O)[C@@H]1CCC(=O)N1)C(=O)N[C@@H](CCCNC(=N)N)C(=O)N1CCC[C@H]1C(=O)NCC(N)=O [[D-Ala^6]LRH]
[1]; [9]
  % inhibition of Pregnancy: 17%
[1]; [10]
  % inhibition of Pregnancy: 50%

## CCNC(=O)[C@@H]1CCCN1C(=O)[C@H](CCCNC(=N)N)NC(=O)[C@H](CC(C)C)NC(=O)[C@@H](C)NC(=O)[C@H](Cc1ccc(O)cc1)NC(=O)[C@H](CO)NC(=O)[C@H](Cc1c[nH]c2ccccc12)NC(=O)[C@H](Cc1c[nH]cn1)NC(=O)[C@@H]1CCC(=O)N1
[1]; PO, total daily dose 200 μg/rat, Rx days 7-12 post coitus
  % inhibition of Pregnancy: 0%
[1]; [3]
  % inhibition of Pregnancy: 67%
[1]; [7]
  % inhibition of Pregnancy: 100%
[1]; [8]
  % inhibition of Pregnancy: 100%
[1]; SC, total daily dose 0.10 μg/rat, Rx days 7-12 post coitus
  % inhibition of Pregnancy: 0%
[1]; SC, total daily dose 1.0 μg/rat, Rx days 1-7 post coitus
  % inhibition of Pregnancy: 100%
[1]; SC, total daily dose 1.0 μg/rat, Rx days 7-12 post coitus
  % inhibition of Pregnancy: 100%
[1]; [4]
  % inhibition of Pregnancy: 100%
[1]; SC, total daily dose 50 μg/rat, Rx days 1-3 post coitus
  % inhibition of Pregnancy: 40%
[1]; [9]
  % inhibition of Pregnancy: 80%
[1]; [5]
  % inhibition of Pregnancy: 100%
[1]; [12]
  % inhibition of Pregnancy: 100%
[1]; [11]
  % inhibition of Pregnancy: 100%
[1]; SC, total daily dose 5000 μg/rat, Rx day 7 post coitus
  % inhibition of Pregnancy: 0%
[1]; SC, total daily dose 5000 μg/rat, Rx day 8 post coitus
  % inhibition of Pregnancy: 100%
[1]; SC, total daily dose .002 μg/rat, Rx days 1-7 post coitus
  % inhibition of Pregnancy: 0%
[1]; SC, total daily dose .010 μg/rat, Rx days 1-7 post coitus
  % inhibition of Pregnancy: 30%
[2]
  activity relative to LRH: ~50 times
  potency/activity versus LRH, in words: markedly more potent than LRH
